In patent publication US10633397B2, “Substituted polycyclic pyridone derivatives and prodrugs thereof” (priority 2015, dated 2020) one finds IC50 and EC50 data, which are given here for 53 molecules.

Assay [1] has as its target cap-dependent endonuclease (RNP fraction, PB1-PB2-PA complex) (Influenza A virus, UniProt P15659). Nature of the assay: Measurement of cap-dependant endonuclease (CEN) inhibitory activity. The format is biochemical. Conditions: RNP from A/WSN/33 virus, room temperature 60 minutes; read-out: CEN_IC50.
The next assay deals with influenza virus. Nature of the assay: CPE inhibitory effect confirming assay. The format is cell-based. The note with it: unidentified influenza virus, 72 h, read-out: CPE_EC50.

On to `C[C@@H]1CC[C@@H]2N(C1)C(=O)c1c(O)c(=O)ccn1N2[C@H]1c2ccc(F)cc2CSc2ccccc21` [III-58], for which the IC50 in assay [1] was 2.65 nM. For the same molecule, the EC50 in the assay with influenza virus is 3.13 nM. Taken in the same sequence, the figures for `CC1(C)CC[C@@H]2N(C1)C(=O)c1c(O)c(=O)ccn1N2[C@@H]1c2ccccc2SCc2c1ccc(F)c2F` [III-35] were 3.86 nM and 3 nM. Taken in the same sequence, the figures for `O=C1c2c(O)c(=O)ccn2N([C@H]2c3ccccc3CSc3ccccc32)[C@@H]2CSCCN12` [III-5] were 10.8 nM and 4.28 nM. On the same counts, the results for `O=C1c2c(O)c(=O)ccn2N([C@H]2c3ccc(F)cc3CSc3ccccc32)[C@@H]2CC(F)(F)CCN12` [III-46] are 2.91 nM and 3.18 nM. Turning to `O=C1c2c(O)c(=O)ccn2N([C@@H]2c3ccccc3SCc3c2cccc3C(F)(F)F)[C@@H]2COCCN12` [III-17], the IC50 in assay [1] was found to be 3.89 nM. For the same molecule, the EC50 in the assay with influenza virus is 8.14 nM. In the case of `C[C@H]1COC[C@@H]2N1C(=O)c1c(O)c(=O)ccn1N2[C@H]1c2ccccc2CSc2ccccc21` [III-32], in assay [1], the IC50 was found to be 27.6 nM. In addition, in the assay on influenza virus, the EC50 came out at 7.23 nM. For `O=C1c2c(O)c(=O)ccn2N([C@H]2c3ccccc3CSc3ccccc32)[C@@H]2CCOCCN12` [III-8], the IC50 in assay [1] is 2.81 nM. For the same molecule, in the assay on influenza virus, the EC50 was found to be 7.18 nM. Take `O=C1c2c(O)c(=O)ccn2N([C@H]2c3ccc(F)cc3CSc3ccccc32)[C@@H]2CCCCN12` [III-54]: the EC50 in the assay on influenza virus came to 1.18 nM.

On to `C[C@H]1COC[C@@H]2N1C(=O)c1c(O)c(=O)ccn1N2[C@H]1c2ccc(F)cc2CSc2ccccc21` [III-30], for which the EC50 with influenza virus amounted to 3.01 nM. Regarding `O=C1c2c(O)c(=O)ccn2N(C2c3ccccc3CCc3ccccc32)[C@@H]2COCCN12` [III-56], the IC50 in assay [1] was found to be 6.64 nM. In the assay with influenza virus, the EC50 is 4.99 nM. Taken in the same sequence, the figures for `C[C@@H]1CCN2C(=O)c3c(O)c(=O)ccn3N([C@H]3c4ccc(F)cc4CSc4ccccc43)[C@@H]2C1` [III-50] were 2.55 nM and 4.36 nM.

With `O=C1c2c(O)c(=O)ccn2N([C@H]2c3ccccc3CSc3ccccc32)[C@@H]2COCCN12` [III-1], the IC50 in assay [1] was determined as 10.9 nM. Further, the EC50 with influenza virus stood at 2.1 nM. On the same counts, the results for `O=C1c2c(O)c(=O)ccn2N([C@H]2c3ccc(F)cc3CSc3ccccc32)[C@@H]2C[C@@H](C(F)(F)F)CCN12` [III-57] are 4.27 nM and 3.47 nM. As for `O=C1c2c(O)c(=O)ccn2N([C@@H]2c3ccccc3SCc3cccc(F)c32)[C@@H]2CCCCN12` [III-53], the IC50 in assay [1] was found to be 2.46 nM. Also, the EC50 in the assay with influenza virus was found to be 3 nM. Take `C[C@@H]1CCN2C(=O)c3c(O)c(=O)ccn3N([C@@H]3c4ccccc4SCc4cccc(F)c43)[C@@H]2C1` [III-49]: in assay [1], the IC50 was 6.79 nM. Moreover, the EC50 in the assay with influenza virus turned out to be 4.17 nM. Turning to `O=C1c2c(O)c(=O)ccn2N([C@@H]2c3ccccc3SCc3cccc(F)c32)[C@@H]2COCCN12` [III-10], the IC50 in assay [1] was found to be 4.05 nM. Also, the EC50 in the assay on influenza virus is 3.46 nM. Consider `O=C1c2c(O)c(=O)ccn2N([C@H]2c3ccccc3CSc3ccccc32)[C@@H]2CCCCN12` [III-25], for which the IC50 in assay [1] came to 2.96 nM. For the same molecule, in the assay on influenza virus, the EC50 was 2.35 nM.

With `O=C1c2c(O)c(=O)ccn2N([C@@H]2c3ccccc3SCc3cccc(Cl)c32)[C@@H]2COCCN12` [III-20], the EC50 with influenza virus is 4 nM. Take `O=C1c2c(O)c(=O)ccn2N([C@@H]2c3cccc(Cl)c3SCc3cccc(F)c32)[C@@H]2COCCN12` [III-16]: in assay [1], the IC50 was found to be 4.33 nM. The EC50 with influenza virus came out at 10.2 nM. On the same counts, the results for `O=C1c2c(O)c(=O)ccn2N([C@@H]2c3ccccc3SCc3c2ccc(F)c3F)[C@@H]2C[C@@H](C(F)(F)F)CCN12` [III-26] are 1.63 nM and 3 nM. Taken in the same sequence, the figures for `C[C@H]1COC[C@@H]2N1C(=O)c1c(O)c(=O)ccn1N2[C@@H]1c2cccc(F)c2SCc2cccc(F)c21` [III-28] were 10.7 nM and 5.67 nM. Taken in the same sequence, the figures for `O=C1c2c(O)c(=O)ccn2N([C@@H]2c3ccccc3SCc3c2cccc3C(F)(F)F)[C@@H]2CCCCN12` [III-27] were 4.19 nM and 3.61 nM.

As for `C[C@@H]1COC[C@@H]2N1C(=O)c1c(O)c(=O)ccn1N2[C@@H]1c2ccccc2SCc2c1ccc(F)c2F` [III-22], the IC50 in assay [1] is 3.46 nM. The EC50 with influenza virus is 3.07 nM. As for `CC1(C)CCN2C(=O)c3c(O)c(=O)ccn3N([C@@H]3c4ccccc4SCc4c3ccc(F)c4F)[C@@H]2C1` [III-33], the EC50 with influenza virus is 2.36 nM. For the molecule `O=C1c2c(O)c(=O)ccn2N([C@@H]2c3ccccc3SCc3c2ccc(F)c3F)[C@@H]2CC3(CCN12)COC3` [III-29], the IC50 in assay [1] worked out at 0.87 nM. In addition, the EC50 with influenza virus is 0.66 nM. Taken in the same sequence, the figures for `O=C1c2c(O)c(=O)ccn2N([C@@H]2c3ccccc3SCc3c2ccc(F)c3F)[C@@H]2CC3(CCOCC3)CCN12` [III-23] were 1.48 nM and 0.86 nM. Regarding `O=C1c2c(O)c(=O)ccn2N([C@H]2c3cc(F)ccc3CSc3ccccc32)[C@@H]2COCCN12` [III-14], in assay [1], the IC50 stood at 15 nM. The EC50 with influenza virus was 15.7 nM. On the same counts, the results for `O=C1c2c(O)c(=O)ccn2N([C@@H]2c3ccccc3SCc3c(F)cc(F)cc32)[C@@H]2COCCN12` [III-11] are 13.1 nM and 9.98 nM. Turning to `O=C1c2c(O)c(=O)ccn2N([C@@H]2c3ccccc3SCc3c2ccc(F)c3F)[C@@H]2CO[C@H](C(F)(F)F)CN12` [III-37], the IC50 in assay [1] turned out to be 4.24 nM. Besides, the EC50 in the assay with influenza virus was 3.43 nM. Taken in the same sequence, the figures for `C[C@H]1CC[C@@H]2N(C1)C(=O)c1c(O)c(=O)ccn1N2[C@@H]1c2ccccc2SCc2c1ccc(F)c2F` [III-40] were 2.99 nM and 2.95 nM. On the same counts, the results for `CO[C@@H]1CCN2C(=O)c3c(O)c(=O)ccn3N([C@@H]3c4ccccc4SCc4c3ccc(F)c4F)[C@@H]2C1` [III-39] are 2.75 nM and 2.81 nM. Taken in the same sequence, the figures for `O=C1c2c(O)c(=O)ccn2N([C@H]2c3ccc(F)cc3CSc3ccccc32)[C@@H]2CC3(CCN12)CC3` [III-55] were 2.13 nM and 3.45 nM.

With `CC1(C)CCN2C(=O)c3c(O)c(=O)ccn3N([C@@H]3c4ccccc4SCc4cccc(F)c43)[C@@H]2C1` [III-45], the IC50 in assay [1] is 1.63 nM. Besides, in the assay with influenza virus, the EC50 worked out at 3.07 nM. Taken in the same sequence, the figures for `O=C1c2c(O)c(=O)ccn2N([C@H]2c3ccc(F)cc3CSc3ccccc32)[C@@H]2COCCN12` [III-3] were 2.22 nM and 3.39 nM. On the same counts, the results for `C[C@@H]1CCN2C(=O)c3c(O)c(=O)ccn3N([C@@H]3c4ccccc4SCc4c3ccc(F)c4F)[C@@H]2C1` [III-41] are 2.1 nM and 2.17 nM. Taken in the same sequence, the figures for `C[C@H]1CN2C(=O)c3c(O)c(=O)ccn3N([C@H]3c4ccc(F)cc4CSc4ccccc43)[C@@H]2CO1` [III-52] were 3.62 nM and 3.28 nM.

For `O=C1c2c(O)c(=O)ccn2N([C@@H]2c3cccc(F)c3SCc3cccc(F)c32)[C@@H]2COCCN12` [III-13], the IC50 in assay [1] came to 3.94 nM. In addition, the EC50 in the assay with influenza virus came to 4 nM.

Turning to `O=C1c2c(O)c(=O)ccn2N([C@@H]2c3ccccc3SCc3c2ccc(F)c3F)[C@@H]2C[C@H](C(F)(F)F)CCN12` [III-38], in assay [1], the IC50 was 8.26 nM. Further, the EC50 in the assay with influenza virus is 4.04 nM.

For `O=C1c2c(O)c(=O)ccn2N([C@@H]2c3ccccc3SCc3c2ccc(F)c3F)[C@@H]2CCC(F)(F)CN12` [III-34], the IC50 in assay [1] came to 4.69 nM. Also, in the assay with influenza virus, the EC50 was 2.85 nM. On the same counts, the results for `O=C1c2c(O)c(=O)ccn2N([C@@H]2c3ccccc3SCc3c2ccc(F)c3F)[C@@H]2CCCCN12` [III-59] are 0.57 nM and 3.11 nM.

For the molecule `O=C1c2c(O)c(=O)ccn2N([C@@H]2c3ccccc3SCc3cccc(O)c32)[C@@H]2COCCN12` [III-24], the IC50 in assay [1] stood at 13.3 nM. Also, the EC50 with influenza virus stood at 24.1 nM.

`O=C1c2c(O)c(=O)ccn2N([C@@H]2c3ccccc3SCc3cccc(F)c32)[C@@H]2CC(F)(F)CCN12` [III-44]: the IC50 in assay [1] amounted to 3.81 nM. Besides, the EC50 in the assay on influenza virus came out at 3.68 nM.

Consider `O=C1c2c(O)c(=O)ccn2N([C@@H]2c3ccccc3SCc3c2ccc(F)c3F)[C@@H]2CC(F)(F)CCN12` [III-21], for which the IC50 in assay [1] was determined as 4.06 nM. Also, the EC50 in the assay on influenza virus was determined as 2.7 nM. On the same counts, the results for `C[C@H]1COC[C@@H]2N1C(=O)c1c(O)c(=O)ccn1N2[C@@H]1c2ccccc2SCc2cccc(F)c21` [III-31] are 18.5 nM and 3.17 nM. Taken in the same sequence, the figures for `O=C1c2c(O)c(=O)ccn2N([C@@H]2c3ccccc3SCc3cccc(F)c32)[C@@H]2CC3(CCN12)CC3` [III-48] were 3.49 nM and 3.57 nM. On the same counts, the results for `O=C1c2c(O)c(=O)ccn2N([C@H]2c3ccc(F)cc3CSc3ccccc32)[C@@H]2C[C@H](C(F)(F)F)CCN12` [III-43] are 3.9 nM and 3.18 nM. In the case of `O=C1c2c(O)c(=O)ccn2N([C@H]2c3cc(Cl)ccc3CSc3ccccc32)[C@@H]2COCCN12` [III-15], the IC50 in assay [1] turned out to be 37.3 nM. Also, the EC50 in the assay with influenza virus came to 16.9 nM. On the same counts, the results for `O=C1c2c(O)c(=O)ccn2N([C@H]2c3ccccc3CSc3ccccc32)[C@@H]2CC3(CCN12)OCCO3` [III-7] are 8.09 nM and 11.5 nM. Take `Cc1cccc2c1[C@H](N1[C@@H]3COCCN3C(=O)c3c(O)c(=O)ccn31)c1ccccc1SC2` [III-18]: the EC50 in the assay on influenza virus was determined as 3.28 nM. Still for that read-out and setting: the figure for `O=C1c2c(O)c(=O)ccn2N([C@@H]2c3ccccc3SCc3c(F)cccc32)[C@@H]2COCCN12` [III-19] is 1.43 nM. Turning to `C[C@@H]1CC[C@@H]2N(C1)C(=O)c1c(O)c(=O)ccn1N2[C@@H]1c2ccccc2SCc2c1ccc(F)c2F` [III-42], the IC50 in assay [1] amounted to 3.93 nM. For the same molecule, the EC50 in the assay on influenza virus was 2.64 nM. Taken in the same sequence, the figures for `C[C@H]1CN2C(=O)c3c(O)c(=O)ccn3N([C@@H]3c4ccccc4SCc4c3ccc(F)c4F)[C@@H]2CO1` [III-51] were 2.22 nM and 2.58 nM. Take `O=C1c2c(O)c(=O)ccn2N([C@@H]2c3ccccc3SCc3c2ccc(F)c3F)[C@@H]2CC3(CCN12)CC3` [III-36]: in the assay with influenza virus, the EC50 was 2.45 nM.
